In patent US7795220B2, “Conformationally constrained parathyroid hormones with alpha-helix stabilizers” (The General Hospital Corporation, priority 2003, dated 2010):
Non-standard residues stand in square brackets, D forms with d. Residues, ends and D or L forms follow the SMILES beside them. hArg = N=C(N)NCCCC[C@H](N)C(=O)O; Ac5c = NC1(C(=O)O)CCCC1; Deg = CCC(N)(CC)C(=O)O; Aib = CC(C)(N)C(=O)O

Tests used:
[1] = test system: P1R (recombinant P1R chimera) in HKRK-B28 cells; assay: cAMP stimulation in HKRK-B28 cells; assay type: cell-based, opposum/rat chimera
Source text: (§1) Cell Culture. The cell line HKRK-B28 (Takasu, H., et al., J. Bone Miner. Res. 14:11-20 (1999)) was derived from the porcine kidney cell line, LLC-PK1 by stable transfection with plasmid DNA encoding a recombinant P1R chimera comprised of the opposum P1R from the N-terminus to the mid region of TM3 and the rat P1R from the mid region of TM3 to the C-terminus. The surface density of the P1R in these cells is ˜280,000 receptors per cell. The clonal cell line LdelNt-2 was derived from LLC-PK, cells via stable transfection with a plasmid encoding P1R-delNt, a recombinant human PTH-1 receptor construct in which most of the amino-terminal extracellular domain is deleted. These cells, as well as COS-7 cells and SaOS-2-B10 cells, were cultured at […] in T-75 flasks ([…]) in Dulbecco's modified Eagle's medium (DMEM) supplemented with fetal bovine serum (10%), penicillin G (20 units/ml), streptomycin sulfate (20 μg/ml) and amphotericin B (0.05 μg/ml) in a humidified atmosphere containing 5% CO2. Stock solutions of EGTA/trypsin and antibiotics were from GLBCO; fetal bovine serum was from Hyclone Laboratories (Logan, Utah). COS-7 cells sub-cultured in 24-well plates were transfected with plasmid DNA (200 ng per well) encoding the wild-type human P1R or truncated human P1R deleted for residues (24-181) (Shimizu, M., et al., J. Biol. Chem. 275:21836-21843 (2000)) that was purified by cesium chloride/ethidium bromide density gradient centrifugation, and FuGENE 6 transfection reagent (Roche Indianapolis Ind.) according to the manufacturer's recommended procedure. All cells, in 24-well plates, were treated with fresh media and shifted to 33° C. for 12 to 24 h prior to assay.
(§2) cAMP Stimulation. Stimulation of cells with peptide analogs was performed in 24-well plates. Cells were rinsed with 0.5 mL of binding buffer (50 mM Tris-HCl, 100 mM NaCl, 5 mM KCl, 2 mM CaCl2, 5% heat-inactivated horse serum, 0.5% fetal bovine serum, adjusted to pH 7.5 with HCl) and treated with 200 μL of cAMP assay buffer (Delbecco's modified Eagle's medium containing 2 mM 3-isobutyl-1-methylxanthine, 1 mg/mL bovine serum albumin, 35 mM Hepes-NaOH, pH 7.4) and 100 μL of binding buffer containing varying amounts of peptide analog (final volume=300 μL). The medium was removed after incubation for 30 to 60 minutes at room temperature, and the cells were frozen on dry ice, lysed with 0.5 mL 50 mM HCl, and refrozen ([…]). The cAMP content of the diluted lysate was determined by radioimmunoassay. The EC50 response values were calculated using nonlinear regression (see below).
(§3) Data Calculation. Calculations were performed using Microsoft® Excel. Nonlinear regression analyses of binding and cAMP dose-response data were performed using the four-parameter equation: yp=Min+[(Max−Min)/(1+(IC50/x)^slope)]. The Excel Solver function was utilized for parameter optimization, as described previously (Carter, P. H., et al., Endocrinology 140: 4972-4981 (1999); Bowen, W. P., and Jerman, J. C., Trends in Pharmacol. Sci. 16: 413-417 (1995)). Differences between paired data sets were statistically evaluated using a one-tailed Student's t-test, assuming unequal variances for the two sets.

[2] = molecular target: T1, P1R (recombinant P1R chimera) in HKRK-B28 cells (UniProt P25107+P25961, A364S/A509S/A517P/A524T/DEL519-521/E344G/G506A/H528S/I365V/I416T/I429T/K402R/K465R/L320I/M408V/N352H/S511P/S523T/T335G/T421L/T487S/V367L/V433I); assay: biochemical; assay type: binding, opposum/rat chimera; settings: for binding affinity higher than that of parent [M]PTH(1-14): relative to parent [M]PTH(1-14)
T1 construct: the opposum P1R from the N-terminus to the mid region of TM3; the rat P1R from the mid region of TM3 to the C-terminus; expressed in transfected cells
Source text: as §1
Competition Binding. Binding reactions were performed with HKRK-B28 cells or in COS-7 cells in 24-well plates. The cells were rinsed with 0.5 mL of binding buffer, and then treated successively with 100 μL binding buffer, 100 μL of binding buffer containing various amounts of unlabeled competitor ligand, and 100 μL of binding buffer containing ca. 100,000 cpm of ^125I-[Aib^1,3,Nle^8,Gln^10,Har^11,Ala^12,Trp^14,Arg^19,Tyr^21]rPTH(1-21) (SEQ. ID. NO. 36) (ca. 26 fmol; final volume=300 μL). Incubations were 4 to 6 h at 4° C., at which time near equilibrium conditions were attained. Cells were then placed on ice, the binding medium was removed, and the monolayer was rinsed three times with 0.5 mL of cold binding buffer. The cells were subsequently lysed with 0.5 mL 5N NaOH and counted for radioactivity. For each tracer and in each experiment, the non-specific binding was determined as the radioactivity that bound in the presence of the same unlabeled peptide at a concentration of 1 μM, and was ˜1% of total radioactivity added for each tracer. The maximum specific binding (B0) was the total radioactivity bound in the absence of competing ligand, corrected for nonspecific binding, and for each tracer, ranged from 8% to 20% of the total radioactivity added. Nonlinear regression was used to calculate binding IC50 values (see below). Scatchard transformations of homologous competition binding data derived from studies with 26 fmol of ^125I-[Aib^1,3,Nle^8,Gln^10,Har^11,Ala^12,Trp^14, Arg^19,Tyr^21]rPTH(1-21) (SEQ. ID. NO. 36) were employed for estimations of apparent equilibrium dissociation constant (kDapps) and total number of ligand binding sites (Bmax), assuming a single class of binding sites and equal affinities of the iodinated and non iodinated ligand.
Data Calculation. Calculations were performed using Microsoft® Excel. Nonlinear regression analyses of binding and cAMP dose-response data were performed using the four-parameter equation: yp=Min+[(Max−Min)/(1+(IC50/x)^slope)]. The Excel Solver function was utilized for parameter optimization, as described previously (Carter, P. H., et al., Endocrinology 140: 4972-4981 (1999); Bowen, W. P., and Jerman, J. C., Trends in Pharmacol. Sci. 16: 413-417 (1995)). […]

hP1R-delNt = molecular target: T2, hP1R-delNt (Homo sapiens, UniProt Q03431); assay: cAMP stimulation in LdelNt-2 cells; assay type: cell-based
T2 construct: expressed in transfected cells
T2 sequence (Q03431 with tags, fused parts or gaps limits assumed): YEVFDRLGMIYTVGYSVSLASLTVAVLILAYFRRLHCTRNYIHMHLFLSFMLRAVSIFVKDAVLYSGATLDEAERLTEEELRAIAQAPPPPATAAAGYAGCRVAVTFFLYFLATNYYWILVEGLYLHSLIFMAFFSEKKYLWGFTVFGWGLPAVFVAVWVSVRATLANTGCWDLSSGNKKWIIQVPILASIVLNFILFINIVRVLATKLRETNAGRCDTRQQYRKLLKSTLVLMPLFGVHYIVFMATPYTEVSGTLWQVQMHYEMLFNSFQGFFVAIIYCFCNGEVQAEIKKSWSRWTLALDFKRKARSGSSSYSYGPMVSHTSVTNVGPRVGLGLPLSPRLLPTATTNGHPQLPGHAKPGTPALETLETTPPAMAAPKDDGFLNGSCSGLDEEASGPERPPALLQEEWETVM
Source text: as §1, §2, §3
Agonist activities of selected analogs in cells expressing P1R-delNt were examined. This PTH-1 receptor construct lacks most of the N domain, but nevertheless mediates full agonist responses to N-terminally modified PTH analogs, and thus enables the relative roles of the receptor's N and J domains to the ligand interaction process to be evaluated. The clonal cell line LdelNT-2 was used, which was derived from LLC-PK, cells by stable transfection with a plasmid encoding the human P1R-delNt construct.

P1R = assay: Antagonism of agonist-induced cAMP activity; assay type: cell-based; settings: analog at 10^−5 M, agonist at 10^−9 M
Method: Polypeptides described herein can be screened for their agonistic or antagonistic properties using the cAMP accumulation assay. Cells expressing PTH-1 receptor on the cell surface are incubated with native PTH(1-84) (SEQ. ID. NO. 18) for 5-60 minutes at 37° C., in the presence of 2 mM IBMX (3-isobutyl-1-methyl-xanthine, Sigma, St. Louis, Mo.). Cyclic AMP accumulation is measured by specific radio-immunoassay. A compound that competes with native PTH(1-84) or PTH(1-34) (SEQ. ID. NO. 19) for binding to the PTH-1 receptor, and that inhibits the effect of native PTH(1-84) or PTH(1-34) on cAMP accumulation, is considered a competitive antagonist. Such a compound would be useful for treating hypercalcemia.
Ligands that function as antagonists can be useful for treating hyperparathyroidism. Analogs of [Ac5c^1, Aib^3, M]PTH(1-14)(parent) (SEQ. ID. NO. 15) containing N-terminal modifications predicted to dissociate signaling and binding affinity (e.g. desamino-1, Trp-2, Bpa-2, Arg-2, Deg-1,3).

T1 sequence (P25107+P25961 fused with the stated changes): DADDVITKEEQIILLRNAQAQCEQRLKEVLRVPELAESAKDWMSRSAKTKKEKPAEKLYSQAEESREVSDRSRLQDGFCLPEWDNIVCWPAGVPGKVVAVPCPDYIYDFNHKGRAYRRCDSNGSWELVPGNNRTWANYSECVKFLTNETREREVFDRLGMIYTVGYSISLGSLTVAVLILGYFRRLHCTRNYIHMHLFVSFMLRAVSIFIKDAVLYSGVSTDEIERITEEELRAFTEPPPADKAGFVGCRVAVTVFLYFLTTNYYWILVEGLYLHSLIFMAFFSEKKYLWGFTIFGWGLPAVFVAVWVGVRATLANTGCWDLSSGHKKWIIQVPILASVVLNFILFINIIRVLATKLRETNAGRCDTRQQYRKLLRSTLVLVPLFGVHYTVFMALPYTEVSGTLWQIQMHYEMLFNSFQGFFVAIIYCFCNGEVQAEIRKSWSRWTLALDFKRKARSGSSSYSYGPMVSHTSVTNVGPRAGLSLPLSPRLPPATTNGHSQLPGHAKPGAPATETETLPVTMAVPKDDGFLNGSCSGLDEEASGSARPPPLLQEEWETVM

CC[C@H](C)[C@H](NC(=O)[C@H](CCC(=O)O)NC(=O)C(CC)(CC)NC(=O)[C@@H](NC(=O)C(N)(CC)CC)C(C)C)C(=O)N[C@@H](CCC(N)=O)C(=O)N[C@@H](CC(C)C)C(=O)N[C@@H](CCSC)C(=O)N[C@@H](Cc1c[nH]cn1)C(=O)N[C@@H](CCC(N)=O)C(=O)N[C@@H](CCCCNC(=N)N)C(=O)N[C@@H](C)C(=O)N[C@@H](CCCCN)C(=O)N[C@@H](Cc1c[nH]c2ccccc12)C(N)=O [[Deg^1,3,M]PTH(1-14), [Deg^1,3,Gln^10,Har^11,Ala^12,Trp^14]PTH(1-14)NH2] (H-[Deg]V[Deg]EIQLMHQ[hArg]AKW-NH2)
maximum cAMP response as percent of that attained by the parent peptide ([1]; HKRK-B28 cells): 45% | cAMP agonist activity / signaling potency (in words) [1]: true partial agonist for cAMP formation | cAMP agonist activity / signaling potency (in words) ([1]; listed as [Deg^1,3,Gln^10,Har^11,Ala^12,Trp^14]pTH(1-14)NH2): partial agonist response | P1R binding affinity (in words) [2]: bound with adequate affinity | binding affinity higher than that of parent [M]PTH(1-14) [2]: 50 fold | EC50 (hP1R-delNt): 1400 ± 500 nM | agonist behavior (in words) (hP1R-delNt): partial agonist behavior | increase in cAMP accumulation (Emax) over basal (hP1R-delNt): 23 fold

CC[C@H](C)[C@H](NC(=O)[C@H](CCC(=O)O)NC(=O)C(C)(C)NC(=O)[C@@H](NC(=O)C(C)(C)N)C(C)C)C(=O)N[C@@H](CCC(N)=O)C(=O)N[C@@H](CC(C)C)C(=O)N[C@@H](CCSC)C(=O)N[C@@H](Cc1c[nH]cn1)C(=O)N[C@@H](CCC(N)=O)C(=O)N[C@@H](CCCCNC(=N)N)C(=O)N[C@@H](C)C(=O)N[C@@H](CCCCN)C(=O)N[C@@H](Cc1c[nH]c2ccccc12)C(N)=O [[Aib^1,3,M]PTH(1-14), [Aib^1,3,Gln^10,Har^11,Ala^12,Trp^14]PTH(1-14)NH2] (H-[Aib]V[Aib]EIQLMHQ[hArg]AKW-NH2)
EC50 (hP1R-delNt): 6.4 ± 1.6 nM

[Ac5c^1,Trp^2,Aib^3, M]PTH(1-14) (H-[Ac5c]W[Aib]EIQLMHQ[hArg]AKW-NH2; SMILES CC[C@H](C)[C@H](NC(=O)[C@H](CCC(=O)O)NC(=O)C(C)(C)NC(=O)[C@H](Cc1c[nH]c2ccccc12)NC(=O)C1(N)CCCC1)C(=O)N[C@@H](CCC(N)=O)C(=O)N[C@@H](CC(C)C)C(=O)N[C@@H](CCSC)C(=O)N[C@@H](Cc1c[nH]cn1)C(=O)N[C@@H](CCC(N)=O)C(=O)N[C@@H](CCCCNC(=N)N)C(=O)N[C@@H](C)C(=O)N[C@@H](CCCCN)C(=O)N[C@@H](Cc1c[nH]c2ccccc12)C(N)=O)
inhibition of the agonist activity of [Aib1,3,M]PTH(1-14) (P1R): 50%

CC[C@H](C)[C@H](NC(=O)[C@H](CCC(=O)O)NC(=O)C(CC)(CC)NC(=O)[C@@H](NC(=O)[C@H](C)N)C(C)C)C(=O)N[C@@H](CCC(N)=O)C(=O)N[C@@H](CC(C)C)C(=O)N[C@@H](CCSC)C(=O)N[C@@H](Cc1c[nH]cn1)C(=O)N[C@@H](CCC(N)=O)C(=O)N[C@@H](CCCCNC(=N)N)C(=O)N[C@@H](C)C(=O)N[C@@H](CCCCN)C(=O)N[C@@H](Cc1c[nH]c2ccccc12)C(N)=O [Deg-3] (H-AV[Deg]EIQLMHQ[hArg]AKW-NH2)
cAMP signaling potency diminished relative to parent [M]PTH(1-14) [1]: approximately 10 fold | cAMP signaling potency diminished relative to parent [M]PTH(1-14) ([1]; listed as Deg^3): ~40 fold | IC50 ([2]; apparent binding affinity (IC50), inhibition of 125I-rPTH(1-21) analog tracer binding, B28 cells): ~3 µM | P1R binding affinity (in words) [2]: little or no effect on binding affinity | binding affinity higher than that of parent [M]PTH(1-14) [2]: around 1.5 fold
